One assay has as its target GTP-binding protein GEM (Homo sapiens) (UniProt P55040). As to the kind of experiment: GEM binders by thermal shift, biophysical, DSF, SYPRO orange, purified protein (AID 397). The settings on record: at 10 µM, protein 2 µM, buffer 10 mM HEPES, pH 7.5, NaCl 150 mM, DTT 1 mM, GDP 40 µM, MgCl 1 mM, stronger effect = higher value.
Sequence of GTP-binding protein GEM (Homo sapiens) (P55040 whole entry, looked up): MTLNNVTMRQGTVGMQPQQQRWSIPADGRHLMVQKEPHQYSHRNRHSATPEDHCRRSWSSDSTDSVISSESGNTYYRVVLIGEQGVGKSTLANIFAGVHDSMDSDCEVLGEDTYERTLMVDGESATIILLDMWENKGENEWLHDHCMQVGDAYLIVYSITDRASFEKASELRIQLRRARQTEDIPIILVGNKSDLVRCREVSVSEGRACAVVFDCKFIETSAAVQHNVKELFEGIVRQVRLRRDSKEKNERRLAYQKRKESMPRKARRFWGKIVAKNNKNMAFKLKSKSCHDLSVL
For the compound `O=C1NC(=O)c2c1c1c3ccccc3[nH]c1c1[nH]c3cc(Br)ccc3c21`, the Tm shift was 3.1 Celsius.

The assay is the same for the next values; noted with them: at 10 µM, protein 2 µM, buffer 10 mM HEPES, pH 7.5, NaCl 150 mM, DTT 1 mM, stronger effect = higher value.
With `Oc1ccc(-c2nc(-c3ccc(F)cc3)c(-c3ccncc3)[nH]2)cc1`, the Tm shift was 6 Celsius.

In the case of `COC(=O)/C=C/c1cc(O)ccc1O`, the Tm shift is 3.2 Celsius.

On to `NC1=N/C(=C2/CCNC(=O)c3[nH]c(Br)cc32)C(=O)N1`, for which the Tm shift was 3.1 Celsius.

As for `CN(C)CCCn1cc(C2=C(c3c[nH]c4ccccc34)C(=O)NC2=O)c2ccccc21`, the Tm shift is 3.2 Celsius.

On to `O=c1cc(-c2ccc(O)cc2)oc2cc(O)cc(O)c12`, for which the Tm shift is 4.1 Celsius.

Regarding `O=c1c(-c2ccc(O)cc2)coc2cc(O)cc(O)c12`, the Tm shift was 5 Celsius.

As to `CN(C)S(O)(O)c1ccc2c(c1)/C(=C/c1cc3c([nH]1)CCCC3)C(=O)N2`, the Tm shift is 3.1 Celsius.

Turning to `Nc1cc2ncnc(Nc3cccc(Br)c3)c2cc1N`, the Tm shift was 3.5 Celsius.

Regarding `NC(=O)c1ccc(-c2nc(-c3ccc4c(c3)OCCO4)c(-c3ccccn3)[nH]2)cc1`, the Tm shift is 4.5 Celsius.

Turning to `COc1cc2ncnc(Nc3cccc(Br)c3)c2cc1OC`, the Tm shift was 5.4 Celsius.

Still in this assay, the particulars now being: at 10 µM, protein 2 µM, buffer 10 mM HEPES, pH 7.5, NaCl 150 mM, DTT 1000 µM, with dithiothreitol, stronger effect = higher value.
`Oc1cc(O)cc(/C=C/c2ccc(O)c(O)c2)c1`: the Tm shift was 2.3 Celsius.

In the case of `CC[C@H](CO)Nc1nc(NCc2ccccc2)c2ncn(C(C)C)c2n1`, the Tm shift was 2.1 Celsius.

Regarding `CC(C)(C)c1nc2c3cc[nH]c(=O)c3c3cc(F)ccc3c2[nH]1`, the Tm shift was 3 Celsius.

As for `Ic1cccc(CSc2nnc(-c3ccncc3)o2)c1`, the Tm shift is 2.4 Celsius.

Consider `Nc1[nH]nc2nc3ccccc3nc12`, for which the Tm shift is 2.5 Celsius.

On to `C/C(O)=C(\C#N)C(=O)Nc1cc(Br)ccc1Br`, for which the Tm shift was 2.2 Celsius.

In the case of `CCCCc1c(-c2ccc(O)cc2)[nH]c2nccnc12`, the Tm shift was 2.7 Celsius.

With `O=S(=O)(c1cccc2c(Cl)cccc12)N1CCCNCC1`, the Tm shift is 2.8 Celsius.

With `O=C1Nc2ccccc2/C1=C\c1cnc[nH]1`, the Tm shift was 2.5 Celsius.

As for `N#C/C(=C(/N)Sc1ccc(N)cc1)c1ccccc1C(F)(F)F`, the Tm shift was 2.8 Celsius.

On to `CC(O)(O)C1(O)C[C@@H]2O[C@@]1(C)n1c3ccccc3c3c4c(c5c6ccccc6n2c5c31)C(=O)NC4` (stereo partly specified), for which the Tm shift is 3 Celsius.

Turning to `C=C(Nc1cc(NC(=O)c2cccc(N(C)C)c2)ccc1C)c1ccc(O)cc1`, the Tm shift was 2.8 Celsius.

Turning to `CC(C)n1cnc2c(Nc3cccc(Cl)c3)nc(NCCO)nc21`, the Tm shift was 2.3 Celsius.

As to `N#CC(Cc1ccc(O)c(O)c1)C(=O)Nc1ccccc1` (stereo unspecified), the Tm shift was 2.7 Celsius.

Still in this assay, the particulars now being: at 10 µM, protein 2 µM, buffer 10 mM HEPES, pH 7.5, NaCl 150 mM, GDP 40 µM, stronger effect = higher value.
`Brc1c(Br)c(Br)c2n[nH]nc2c1Br`: the Tm shift is 2.5 Celsius.

On to `COc1cc(O)c2c(c1)oc(=O)c1c3cc(O)c(O)cc3oc21`, for which the Tm shift was 2.3 Celsius.

Turning to `COc1cc(/C=C/C(=O)CC(=O)/C=C/c2ccc(O)c(OC)c2)ccc1O`, the Tm shift is 2.4 Celsius.

Staying with this assay, now noted: at 10 µM, protein 2 µM, buffer 10 mM HEPES, pH 7.5, NaCl 150 mM, stronger effect = higher value.
On to `CCOc1c(Br)ccc2c1sc1nc[nH]c(=O)c12`, for which the Tm shift is 3.1 Celsius.

For the compound `Cc1ccc(NC(=O)c2snc3c(=O)[nH]cnc23)cc1`, the Tm shift was 2.1 Celsius.

On to `Cc1ccc2c(c1Br)C(=Nc1ccc(Cl)cc1)C(=O)N2`, for which the Tm shift is 2.3 Celsius.

These data come from PubChem BioAssay AID397 (SGCOxCompounds, 2006).
